Laboratory results published in ChEMBL document CHEMBL3621073, “Bile acid amphiphiles with tunable head groups as highly selective antitubercular agents” (Medchemcomm, 2014).
In brackets after ≈: the same amount, converted by molar mass.

Tested on: Staphylococcus aureus
Test: Antibacterial activity against Staphylococcus aureus MTCC 737 after 12 hrs by microplate reader assay
Type: functional
Conditions: MTCC 737, 12 h

| SMILES | MIC99 |
| --- | --- |
| COC(=O)CC[C@@H](C)[C@H]1CC[C@H]2[C@@H]3CC[C@@H]4C[C@H](OC(=O)C[n+]5ccc(N(C)C)cc5)CC[C@]4(C)[C@H]3CC[C@]12C | > 512 µM |
| COC(=O)CC[C@@H](C)[C@H]1CC[C@H]2[C@@H]3[C@H](OC(=O)C[N+](C)(C)C)C[C@@H]4C[C@H](OC(=O)C[N+](C)(C)C)CC[C@]4(C)[C@H]3CC[C@]12C | 512 µM |
| COC(=O)CC[C@@H](C)[C@H]1CC[C@H]2[C@@H]3CC[C@@H]4C[C@H](OC(=O)C[n+]5ccccc5)CC[C@]4(C)[C@H]3C[C@H](OC(=O)C[n+]3ccccc3)[C@]12C | > 512 µM |
| COC(=O)CC[C@@H](C)[C@H]1CC[C@H]2[C@@H]3CC[C@@H]4C[C@H](OC(=O)C[n+]5ccccc5)CC[C@]4(C)[C@H]3CC[C@]12C | > 512 µM |
| COC(=O)CC[C@@H](C)[C@H]1CC[C@H]2[C@@H]3CC[C@@H]4C[C@H](OC(=O)CN)CC[C@]4(C)[C@H]3C[C@H](OC(=O)CN)[C@]12C | 64 µM (≈ 33.3 µg/mL) |

Tested on: not listed separately
Test: Therapeutic index, ratio of MHC50 for chicken RBC to MIC99 for Mycobacterium tuberculosis H37Rv
Conditions: chicken red blood cells, read-out: TI

| SMILES | selectivity ratio |
| --- | --- |
| COC(=O)CC[C@@H](C)[C@H]1CC[C@H]2[C@@H]3CC[C@@H]4C[C@H](OC(=O)C[n+]5ccc(N(C)C)cc5)CC[C@]4(C)[C@H]3CC[C@]12C | > 20 |
| COC(=O)CC[C@@H](C)[C@H]1CC[C@H]2[C@@H]3[C@H](OC(=O)C[N+](C)(C)C)C[C@@H]4C[C@H](OC(=O)C[N+](C)(C)C)CC[C@]4(C)[C@H]3CC[C@]12C | > 80 |
| COC(=O)CC[C@@H](C)[C@H]1CC[C@H]2[C@@H]3CC[C@@H]4C[C@H](OC(=O)C[n+]5ccccc5)CC[C@]4(C)[C@H]3C[C@H](OC(=O)C[n+]3ccccc3)[C@]12C | > 80 |
| COC(=O)CC[C@@H](C)[C@H]1CC[C@H]2[C@@H]3CC[C@@H]4C[C@H](OC(=O)C[n+]5ccccc5)CC[C@]4(C)[C@H]3CC[C@]12C | < 20 |
| COC(=O)CC[C@@H](C)[C@H]1CC[C@H]2[C@@H]3CC[C@@H]4C[C@H](OC(=O)CN)CC[C@]4(C)[C@H]3C[C@H](OC(=O)CN)[C@]12C | < 20 |

Tested on: Mycolicibacterium smegmatis
Test: Antimycobacterial activity against Mycobacterium smegmatis str. MC2 155 after 2 days by inverted microscopic analysis
Type: functional
Conditions: str. MC2 155, 48 h

| SMILES | MIC99 |
| --- | --- |
| COC(=O)CC[C@@H](C)[C@H]1CC[C@H]2[C@@H]3CC[C@@H]4C[C@H](OC(=O)C[n+]5ccc(N(C)C)cc5)CC[C@]4(C)[C@H]3CC[C@]12C | 12.5 µM |
| COC(=O)CC[C@@H](C)[C@H]1CC[C@H]2[C@@H]3[C@H](OC(=O)C[N+](C)(C)C)C[C@@H]4C[C@H](OC(=O)C[N+](C)(C)C)CC[C@]4(C)[C@H]3CC[C@]12C | 3.12 µM |
| COC(=O)CC[C@@H](C)[C@H]1CC[C@H]2[C@@H]3CC[C@@H]4C[C@H](OC(=O)C[n+]5ccccc5)CC[C@]4(C)[C@H]3C[C@H](OC(=O)C[n+]3ccccc3)[C@]12C | 1.56 µM |
| COC(=O)CC[C@@H](C)[C@H]1CC[C@H]2[C@@H]3CC[C@@H]4C[C@H](OC(=O)C[n+]5ccccc5)CC[C@]4(C)[C@H]3CC[C@]12C | 25 µM |
| COC(=O)CC[C@@H](C)[C@H]1CC[C@H]2[C@@H]3CC[C@@H]4C[C@H](OC(=O)CN)CC[C@]4(C)[C@H]3C[C@H](OC(=O)CN)[C@]12C | > 50 µM |

Tested on: Escherichia coli
Test: Antibacterial activity against Escherichia coli MTCC 443 after 12 hrs by microplate reader assay
Type: functional
Conditions: MTCC 443, 12 h

| SMILES | MIC99 |
| --- | --- |
| COC(=O)CC[C@@H](C)[C@H]1CC[C@H]2[C@@H]3CC[C@@H]4C[C@H](OC(=O)C[n+]5ccc(N(C)C)cc5)CC[C@]4(C)[C@H]3CC[C@]12C | > 512 µM |
| COC(=O)CC[C@@H](C)[C@H]1CC[C@H]2[C@@H]3[C@H](OC(=O)C[N+](C)(C)C)C[C@@H]4C[C@H](OC(=O)C[N+](C)(C)C)CC[C@]4(C)[C@H]3CC[C@]12C | 256 µM |
| COC(=O)CC[C@@H](C)[C@H]1CC[C@H]2[C@@H]3CC[C@@H]4C[C@H](OC(=O)C[n+]5ccccc5)CC[C@]4(C)[C@H]3C[C@H](OC(=O)C[n+]3ccccc3)[C@]12C | 128 µM |
| COC(=O)CC[C@@H](C)[C@H]1CC[C@H]2[C@@H]3CC[C@@H]4C[C@H](OC(=O)C[n+]5ccccc5)CC[C@]4(C)[C@H]3CC[C@]12C | > 512 µM |
| COC(=O)CC[C@@H](C)[C@H]1CC[C@H]2[C@@H]3CC[C@@H]4C[C@H](OC(=O)CN)CC[C@]4(C)[C@H]3C[C@H](OC(=O)CN)[C@]12C | 16 µM (≈ 8.33 µg/mL) |

Tested on: THP-1
Test: Cytotoxicity against human THP1 cells after 48 hrs by MTT assay
Type: cell-based
Conditions: THP-1, 48 h

| SMILES | IC50 |
| --- | --- |
| COC(=O)CC[C@@H](C)[C@H]1CC[C@H]2[C@@H]3CC[C@@H]4C[C@H](OC(=O)C[n+]5ccc(N(C)C)cc5)CC[C@]4(C)[C@H]3CC[C@]12C | 86 µM |
| COC(=O)CC[C@@H](C)[C@H]1CC[C@H]2[C@@H]3[C@H](OC(=O)C[N+](C)(C)C)C[C@@H]4C[C@H](OC(=O)C[N+](C)(C)C)CC[C@]4(C)[C@H]3CC[C@]12C | 142 µM |
| COC(=O)CC[C@@H](C)[C@H]1CC[C@H]2[C@@H]3CC[C@@H]4C[C@H](OC(=O)C[n+]5ccccc5)CC[C@]4(C)[C@H]3C[C@H](OC(=O)C[n+]3ccccc3)[C@]12C | 124 µM |
| COC(=O)CC[C@@H](C)[C@H]1CC[C@H]2[C@@H]3CC[C@@H]4C[C@H](OC(=O)C[n+]5ccccc5)CC[C@]4(C)[C@H]3CC[C@]12C | 89 µM |
| COC(=O)CC[C@@H](C)[C@H]1CC[C@H]2[C@@H]3CC[C@@H]4C[C@H](OC(=O)CN)CC[C@]4(C)[C@H]3C[C@H](OC(=O)CN)[C@]12C | 14 µM |

Tested on: A549
Test: Cytotoxicity against human A549 cells after 48 hrs by MTT assay
Type: cell-based
Conditions: A549, 48 h

| SMILES | IC50 |
| --- | --- |
| COC(=O)CC[C@@H](C)[C@H]1CC[C@H]2[C@@H]3CC[C@@H]4C[C@H](OC(=O)C[n+]5ccc(N(C)C)cc5)CC[C@]4(C)[C@H]3CC[C@]12C | 112 µM |
| COC(=O)CC[C@@H](C)[C@H]1CC[C@H]2[C@@H]3[C@H](OC(=O)C[N+](C)(C)C)C[C@@H]4C[C@H](OC(=O)C[N+](C)(C)C)CC[C@]4(C)[C@H]3CC[C@]12C | 144 µM |
| COC(=O)CC[C@@H](C)[C@H]1CC[C@H]2[C@@H]3CC[C@@H]4C[C@H](OC(=O)C[n+]5ccccc5)CC[C@]4(C)[C@H]3C[C@H](OC(=O)C[n+]3ccccc3)[C@]12C | 78 µM |
| COC(=O)CC[C@@H](C)[C@H]1CC[C@H]2[C@@H]3CC[C@@H]4C[C@H](OC(=O)C[n+]5ccccc5)CC[C@]4(C)[C@H]3CC[C@]12C | 68 µM |
| COC(=O)CC[C@@H](C)[C@H]1CC[C@H]2[C@@H]3CC[C@@H]4C[C@H](OC(=O)CN)CC[C@]4(C)[C@H]3C[C@H](OC(=O)CN)[C@]12C | 14.7 µM |

Tested on: Mycobacterium tuberculosis
Test: Antimycobacterial activity against Mycobacterium tuberculosis H37Rv after 14 days by inverted microscopic analysis
Type: functional
Conditions: 336 h

| SMILES | MIC99 |
| --- | --- |
| COC(=O)CC[C@@H](C)[C@H]1CC[C@H]2[C@@H]3CC[C@@H]4C[C@H](OC(=O)C[n+]5ccc(N(C)C)cc5)CC[C@]4(C)[C@H]3CC[C@]12C | 50 µM |
| COC(=O)CC[C@@H](C)[C@H]1CC[C@H]2[C@@H]3[C@H](OC(=O)C[N+](C)(C)C)C[C@@H]4C[C@H](OC(=O)C[N+](C)(C)C)CC[C@]4(C)[C@H]3CC[C@]12C | 12.5 µM |
| COC(=O)CC[C@@H](C)[C@H]1CC[C@H]2[C@@H]3CC[C@@H]4C[C@H](OC(=O)C[n+]5ccccc5)CC[C@]4(C)[C@H]3C[C@H](OC(=O)C[n+]3ccccc3)[C@]12C | 12.5 µM |
| COC(=O)CC[C@@H](C)[C@H]1CC[C@H]2[C@@H]3CC[C@@H]4C[C@H](OC(=O)C[n+]5ccccc5)CC[C@]4(C)[C@H]3CC[C@]12C | > 50 µM |
| COC(=O)CC[C@@H](C)[C@H]1CC[C@H]2[C@@H]3CC[C@@H]4C[C@H](OC(=O)CN)CC[C@]4(C)[C@H]3C[C@H](OC(=O)CN)[C@]12C | > 50 µM |

Tested on: not listed separately
Test: Therapeutic index, ratio of MHC50 for sheep RBC to MIC99 for Mycobacterium tuberculosis H37Rv
Conditions: sheep red blood cells, read-out: TI

| SMILES | selectivity ratio |
| --- | --- |
| COC(=O)CC[C@@H](C)[C@H]1CC[C@H]2[C@@H]3CC[C@@H]4C[C@H](OC(=O)C[n+]5ccc(N(C)C)cc5)CC[C@]4(C)[C@H]3CC[C@]12C | > 20 |
| COC(=O)CC[C@@H](C)[C@H]1CC[C@H]2[C@@H]3[C@H](OC(=O)C[N+](C)(C)C)C[C@@H]4C[C@H](OC(=O)C[N+](C)(C)C)CC[C@]4(C)[C@H]3CC[C@]12C | > 80 |
| COC(=O)CC[C@@H](C)[C@H]1CC[C@H]2[C@@H]3CC[C@@H]4C[C@H](OC(=O)C[n+]5ccccc5)CC[C@]4(C)[C@H]3C[C@H](OC(=O)C[n+]3ccccc3)[C@]12C | > 80 |
| COC(=O)CC[C@@H](C)[C@H]1CC[C@H]2[C@@H]3CC[C@@H]4C[C@H](OC(=O)C[n+]5ccccc5)CC[C@]4(C)[C@H]3CC[C@]12C | < 20 |
| COC(=O)CC[C@@H](C)[C@H]1CC[C@H]2[C@@H]3CC[C@@H]4C[C@H](OC(=O)CN)CC[C@]4(C)[C@H]3C[C@H](OC(=O)CN)[C@]12C | < 20 |
